# Assay results reported in PubChem BioAssay (NCI).
# Values joined by “and” are separate entries in the source; they are usually repeats but may differ in a detail not shown here. Equal entries are not always repeated.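 Protocol summary: plate cells (96-well), add compound at 5 concentrations, incubate 48 h, interpolate endpoints linearly. GI50 is the concentration that inhibits growth by half. TGI is the concentration that stops growth completely.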 Where a SMILES comes first, the peptide text is derived from it. The star is where a group is joined. Boc = CC(C)(C)OC(=O)*; Bn = c1ccc(C*)cc1
# How the values were obtained:
# Assay in all cases: NCI tumour cell line growth inhibition, 48 h
# 786-0 renal = test system: 786-0 renal
# A498 renal = test system: A498 renal
# A549 NSCLC = test system: A549 NSCLC
# ACHN renal = test system: ACHN renal
# BT-549 breast = test system: BT-549 breast
# CAKI-1 renal = test system: CAKI-1 renal
# CCRF-CEM leukemia = test system: CCRF-CEM leukemia
# COLO 205 colon = test system: COLO 205 colon
# DU-145 prostate = test system: DU-145 prostate
# EKVX NSCLC = test system: EKVX NSCLC
# HCC-2998 colon = test system: HCC-2998 colon
# HCT-116 colon = test system: HCT-116 colon
# HCT-15 colon = test system: HCT-15 colon
# HL-60(TB) leukemia = test system: HL-60(TB) leukemia
# HOP-62 NSCLC = test system: HOP-62 NSCLC
# HOP-92 NSCLC = test system: HOP-92 NSCLC
# HS 578T breast = test system: HS 578T breast
# HT29 colon = test system: HT29 colon
# IGROV1 ovarian = test system: IGROV1 ovarian
# K-562 leukemia = test system: K-562 leukemia
# KM12 colon = test system: KM12 colon
# LOX IMVI melanoma = test system: LOX IMVI melanoma
# M14 melanoma = test system: M14 melanoma
# MALME-3M melanoma = test system: MALME-3M melanoma
# MCF7 breast = test system: MCF7 breast
# MDA-MB-231 breast = test system: MDA-MB-231 breast
# MDA-MB-435 = test system: MDA-MB-435
# MDA-N = test system: MDA-N
# MOLT-4 leukemia = test system: MOLT-4 leukemia
# NCI-H226 lung = test system: NCI-H226 lung
# NCI-H23 lung = test system: NCI-H23 lung
# NCI-H460 lung = test system: NCI-H460 lung
# NCI-H522 lung = test system: NCI-H522 lung
# NCI/ADR-RES ovarian = test system: NCI/ADR-RES ovarian
# OVCAR-3 ovarian = test system: OVCAR-3 ovarian
# OVCAR-4 ovarian = test system: OVCAR-4 ovarian
# OVCAR-5 ovarian = test system: OVCAR-5 ovarian
# OVCAR-8 ovarian = test system: OVCAR-8 ovarian
# PC-3 prostate = test system: PC-3 prostate
# RPMI-8226 leukemia = test system: RPMI-8226 leukemia
# RXF 393 renal = test system: RXF 393 renal
# SF-268 CNS = test system: SF-268 CNS
# SF-295 CNS = test system: SF-295 CNS
# SF-539 CNS = test system: SF-539 CNS
# SK-MEL-28 melanoma = test system: SK-MEL-28 melanoma
# SK-MEL-5 melanoma = test system: SK-MEL-5 melanoma
# SK-OV-3 ovarian = test system: SK-OV-3 ovarian
# SN12C renal = test system: SN12C renal
# SNB-19 CNS = test system: SNB-19 CNS
# SNB-75 CNS = test system: SNB-75 CNS
# SR leukemia = test system: SR leukemia
# SW-620 colon = test system: SW-620 colon
# T-47D breast = test system: T-47D breast
# TK-10 renal = test system: TK-10 renal
# U251 CNS = test system: U251 CNS
# UACC-257 melanoma = test system: UACC-257 melanoma
# UACC-62 melanoma = test system: UACC-62 melanoma
# UO-31 renal = test system: UO-31 renal
# SK-MEL-2 melanoma = test system: SK-MEL-2 melanoma
smiles,measurement,setting,value
CNC(=O)C(CC(C)C)NC(=O)C(C)NC(=O)C(Cc1ccc(OCc2ccccc2)cc1)NC(=O)C(COCc1ccccc1)NC(=O)OC(C)(C)C (stereo unspecified) (Boc-S(Bn)Y(Bn)AL-NHMe; configuration not given here),TGI,786-0 renal,54.9 µM and 39.4 µM
same,GI50,A498 renal,33.7 µM and 12.5 µM
same,TGI,A498 renal,94 µM and 30.3 µM
same,GI50,A549 NSCLC,> 70.9 µM and 16.9 µM
same,TGI,A549 NSCLC,> 100 µM and 51.4 µM
same,GI50,ACHN renal,> 100 µM and 13 µM
same,TGI,ACHN renal,> 100 µM
same,TGI,BT-549 breast,55.5 µM and 40.4 µM
same,TGI,CAKI-1 renal,> 100 µM
same,GI50,CCRF-CEM leukemia,4.39 µM and 10.5 µM
same,TGI,CCRF-CEM leukemia,18.9 µM and 39.6 µM
same,GI50,COLO 205 colon,17.3 µM and 2.11 µM
same,TGI,COLO 205 colon,38.3 µM and 9.52 µM
same,TGI,DU-145 prostate,> 100 µM
same,GI50,EKVX NSCLC,> 100 µM and 26.4 µM
same,TGI,EKVX NSCLC,> 100 µM and 77.9 µM
same,GI50,HCC-2998 colon,29.3 µM and 3.13 µM
same,TGI,HCC-2998 colon,> 87.3 µM and 9.17 µM
same,TGI,HCT-116 colon,20.1 µM and 20.5 µM
same,TGI,HCT-15 colon,> 100 µM
same,GI50,HL-60(TB) leukemia,9.51 µM and 3.9 µM
same,TGI,HL-60(TB) leukemia,30.2 µM and > 100 µM
same,TGI,HOP-62 NSCLC,> 53.2 µM and 38.1 µM
same,TGI,HOP-92 NSCLC,> 80.8 µM and 51.7 µM
same,TGI,HS 578T breast,58.1 µM and 31.4 µM
same,TGI,HT29 colon,> 38.9 µM and 30.9 µM
same,TGI,IGROV1 ovarian,53.9 µM and 63.7 µM
same,TGI,K-562 leukemia,> 48 µM and 38.4 µM
same,TGI,KM12 colon,> 44.2 µM and 40.3 µM
same,TGI,LOX IMVI melanoma,27.5 µM and 48.8 µM
same,GI50,M14 melanoma,42.1 µM and 15 µM
same,TGI,M14 melanoma,> 100 µM and 28.2 µM
same,TGI,MALME-3M melanoma,> 100 µM and 18.1 µM
same,TGI,MCF7 breast,35.5 µM and 26.2 µM
same,TGI,MDA-MB-231 breast,35.7 µM and 36 µM
same,GI50,MDA-MB-435,20.7 µM and 10.1 µM
same,TGI,MDA-MB-435,> 55.9 µM and 27.9 µM
same,TGI,MDA-N,30 µM and 30.9 µM
same,TGI,MOLT-4 leukemia,22.9 µM and 38.5 µM
same,GI50,NCI-H226 lung,44.3 µM and 15.2 µM
same,TGI,NCI-H226 lung,> 68.5 µM and 39 µM
same,TGI,NCI-H23 lung,> 71.1 µM and 43.3 µM
same,GI50,NCI-H460 lung,> 41 µM and 18.3 µM
same,TGI,NCI-H460 lung,> 61.4 µM and 42.6 µM
same,TGI,NCI-H522 lung,37.4 µM
same,TGI,NCI/ADR-RES ovarian,> 100 µM
same,GI50,OVCAR-3 ovarian,42.1 µM and 19.1 µM
same,TGI,OVCAR-3 ovarian,> 100 µM and 44 µM
same,TGI,OVCAR-4 ovarian,41.2 µM and 45.4 µM
same,GI50,OVCAR-5 ovarian,> 73.2 µM and 21.2 µM
same,TGI,OVCAR-5 ovarian,> 100 µM and 51.6 µM
same,TGI,OVCAR-8 ovarian,35 µM and 48.5 µM
same,GI50,PC-3 prostate,19.2 µM and 2.53 µM
same,TGI,PC-3 prostate,58.4 µM and 18.6 µM
same,GI50,RPMI-8226 leukemia,24.8 µM and 4.27 µM
same,TGI,RPMI-8226 leukemia,64.4 µM and 27 µM
same,GI50,RXF 393 renal,47.6 µM and 7.04 µM
same,TGI,RXF 393 renal,> 100 µM and 24.3 µM
same,TGI,SF-268 CNS,53.8 µM and 46.5 µM
same,GI50,SF-295 CNS,> 43.9 µM and 21 µM
same,TGI,SF-295 CNS,> 61 µM and 41.2 µM
same,TGI,SF-539 CNS,> 57.8 µM
same,GI50,SK-MEL-28 melanoma,> 62.5 µM and 14.1 µM
same,TGI,SK-MEL-28 melanoma,> 100 µM and 30.9 µM
same,GI50,SK-MEL-5 melanoma,47.9 µM and 11.7 µM
same,TGI,SK-MEL-5 melanoma,> 100 µM and 23.9 µM
same,TGI,SK-OV-3 ovarian,> 60.3 µM and 39.6 µM
same,GI50,SN12C renal,> 52.3 µM and 18.8 µM
same,TGI,SN12C renal,> 86.4 µM and 42.1 µM
same,TGI,SNB-19 CNS,> 58 µM and 36.9 µM
same,GI50,SNB-75 CNS,18.9 µM and 9 µM
same,TGI,SNB-75 CNS,> 31.6 µM and 22.9 µM
same,TGI,SR leukemia,> 46.1 µM and 86.9 µM
same,TGI,SW-620 colon,31 µM and 28.7 µM
same,GI50,T-47D breast,28.2 µM and 5.15 µM
same,TGI,T-47D breast,> 74 µM and 27.1 µM
same,GI50,TK-10 renal,> 73.8 µM and 29.1 µM
same,TGI,TK-10 renal,> 100 µM
same,TGI,U251 CNS,> 41.3 µM and 31.7 µM
same,TGI,UACC-257 melanoma,> 100 µM
same,TGI,UACC-62 melanoma,> 31.6 µM
same,TGI,UO-31 renal,> 100 µM
CCC12C=CCN3CCC4(c5cc(C(c6ccc(OC)cc6)C6Cc7ccccc7N6)c(OC)cc5N(C)C4C(O)(C(=O)OC)C1O)C32 (stereo unspecified),TGI,786-0 renal,> 100 µM
same,TGI,A498 renal,80.3 µM
same,TGI,A549 NSCLC,> 100 µM
same,TGI,ACHN renal,> 100 µM
same,TGI,BT-549 breast,80.6 µM
same,TGI,CAKI-1 renal,> 100 µM
same,TGI,CCRF-CEM leukemia,16.6 µM
same,TGI,COLO 205 colon,27.5 µM
same,TGI,DU-145 prostate,> 100 µM
same,TGI,EKVX NSCLC,> 100 µM
same,TGI,HCC-2998 colon,57.5 µM
same,TGI,HCT-116 colon,> 100 µM
same,TGI,HCT-15 colon,> 100 µM
same,TGI,HL-60(TB) leukemia,24.1 µM
same,TGI,HOP-62 NSCLC,90.1 µM
same,TGI,HOP-92 NSCLC,8.14 µM
same,TGI,HS 578T breast,> 100 µM
same,TGI,HT29 colon,> 100 µM
same,TGI,IGROV1 ovarian,51.2 µM
same,TGI,K-562 leukemia,41.7 µM
same,TGI,KM12 colon,36.5 µM
same,TGI,LOX IMVI melanoma,36 µM
same,TGI,M14 melanoma,> 100 µM
same,TGI,MALME-3M melanoma,> 100 µM
same,TGI,MCF7 breast,28.3 µM
same,TGI,MDA-MB-231 breast,59.2 µM
same,TGI,MDA-MB-435,80.4 µM
same,TGI,MDA-N,> 100 µM
same,TGI,MOLT-4 leukemia,18.2 µM
same,TGI,NCI-H226 lung,> 100 µM
same,TGI,NCI-H23 lung,> 100 µM
same,TGI,NCI-H460 lung,54.5 µM
same,TGI,NCI-H522 lung,98 µM
same,TGI,NCI/ADR-RES ovarian,> 100 µM
same,TGI,OVCAR-3 ovarian,94.9 µM
same,TGI,OVCAR-4 ovarian,> 100 µM
same,TGI,OVCAR-5 ovarian,> 100 µM
same,TGI,OVCAR-8 ovarian,> 100 µM
same,TGI,PC-3 prostate,> 100 µM
same,TGI,RPMI-8226 leukemia,13.8 µM
same,TGI,RXF 393 renal,83.1 µM
same,TGI,SF-268 CNS,> 100 µM
same,TGI,SF-295 CNS,> 100 µM
same,TGI,SF-539 CNS,78.4 µM
same,TGI,SK-MEL-2 melanoma,68.8 µM
same,TGI,SK-MEL-28 melanoma,> 100 µM
same,TGI,SK-MEL-5 melanoma,52 µM
same,TGI,SK-OV-3 ovarian,> 100 µM
same,TGI,SN12C renal,> 100 µM
same,TGI,SNB-19 CNS,> 100 µM
same,TGI,SNB-75 CNS,33.7 µM
same,TGI,SR leukemia,27 µM
same,TGI,SW-620 colon,> 100 µM
same,TGI,T-47D breast,9.98 µM
same,TGI,TK-10 renal,66.3 µM
same,TGI,U251 CNS,35.4 µM
same,TGI,UACC-257 melanoma,> 100 µM
same,TGI,UACC-62 melanoma,31.4 µM
same,TGI,UO-31 renal,31.5 µM
